Assay results taken from patent US12162890B2 (Novartis AG, priority 2015, dated 2024).

Molecular target: HEK293 cells with stable expression of the GRIN1 gene and tetracycline-inducible expression of the GRIN2B gene (NMDA receptor, NR2B) (Homo sapiens, UniProt Q13224)
Experiment: Fluo-8 Ca2+ flux assay: reversal of Ro 25-6981-mediated suppression of the Ca2+ response to co-agonist (glutamate/glycine); also: test concentration or dose not given here
Format: cell-based
Conditions: reversal of the Ro 25-6981 suppression of the Ca2+ response to co-agonist (glutamate/glycine)

HEK293 cells with stable expression of the GRIN1 gene and tetracycline-inducible expression of the GRIN2B gene (NMDA receptor, NR2B), sequence (Q13224 27-1484, other chains not shown): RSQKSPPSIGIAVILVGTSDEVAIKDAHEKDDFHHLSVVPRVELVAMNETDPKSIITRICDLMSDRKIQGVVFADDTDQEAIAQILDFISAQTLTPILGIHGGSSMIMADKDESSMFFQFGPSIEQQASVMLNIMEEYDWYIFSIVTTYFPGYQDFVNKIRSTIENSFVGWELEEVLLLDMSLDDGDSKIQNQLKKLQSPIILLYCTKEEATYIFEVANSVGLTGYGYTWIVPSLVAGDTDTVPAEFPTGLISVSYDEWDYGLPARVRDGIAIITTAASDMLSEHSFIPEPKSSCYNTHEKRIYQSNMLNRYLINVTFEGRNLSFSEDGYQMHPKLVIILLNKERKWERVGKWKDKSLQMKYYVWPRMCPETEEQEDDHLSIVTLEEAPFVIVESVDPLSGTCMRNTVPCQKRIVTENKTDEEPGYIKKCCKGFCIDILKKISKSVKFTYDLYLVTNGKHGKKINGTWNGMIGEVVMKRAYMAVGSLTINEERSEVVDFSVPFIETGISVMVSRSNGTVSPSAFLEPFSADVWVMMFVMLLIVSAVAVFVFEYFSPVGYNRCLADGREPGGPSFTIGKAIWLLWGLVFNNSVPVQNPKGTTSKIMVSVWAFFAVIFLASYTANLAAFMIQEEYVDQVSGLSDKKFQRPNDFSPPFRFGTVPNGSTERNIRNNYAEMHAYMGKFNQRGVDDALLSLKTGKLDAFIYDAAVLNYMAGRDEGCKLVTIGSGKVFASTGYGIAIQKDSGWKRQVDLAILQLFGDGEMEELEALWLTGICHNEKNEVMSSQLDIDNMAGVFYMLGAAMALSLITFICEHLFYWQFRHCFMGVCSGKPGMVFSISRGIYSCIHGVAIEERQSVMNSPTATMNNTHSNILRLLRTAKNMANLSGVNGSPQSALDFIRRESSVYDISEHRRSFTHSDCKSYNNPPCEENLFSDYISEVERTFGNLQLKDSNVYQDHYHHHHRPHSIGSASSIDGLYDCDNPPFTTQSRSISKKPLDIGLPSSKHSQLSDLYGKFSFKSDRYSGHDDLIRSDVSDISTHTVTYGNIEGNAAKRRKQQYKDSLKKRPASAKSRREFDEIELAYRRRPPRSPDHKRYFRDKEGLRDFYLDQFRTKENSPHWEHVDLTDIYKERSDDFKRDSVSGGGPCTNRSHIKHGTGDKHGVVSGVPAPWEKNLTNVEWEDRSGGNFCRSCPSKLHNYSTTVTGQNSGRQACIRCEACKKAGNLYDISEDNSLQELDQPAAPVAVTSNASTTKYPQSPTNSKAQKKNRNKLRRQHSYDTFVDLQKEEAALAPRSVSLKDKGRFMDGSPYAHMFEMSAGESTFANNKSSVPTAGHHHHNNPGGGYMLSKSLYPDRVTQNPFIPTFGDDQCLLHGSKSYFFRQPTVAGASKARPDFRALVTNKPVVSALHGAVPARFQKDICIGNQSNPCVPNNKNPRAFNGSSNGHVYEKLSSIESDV

Structure (SMILES) | Response Recovered (%)
O=C(Cn1ccc2scc(-c3ccc(Cl)c(C(F)(F)F)c3)c2c1=O)N1CC(F)C1 [Example 34, 3-(4-chloro-3-(trifluoromethyl)phen-yl)-5-(2-(3-fluoroazetidin-1-yl)-2-oxoethyl)thieno[3,2-c]pyridin-4(5H)-one] | 79
O=C(Cn1ccc2c(c(-c3ccc(F)c(Cl)c3)cn2C2COC2)c1=O)N1CCC(F)C1 (centres unmarked) [Example 261, 3-(3-chloro-4-fluorophenyl)-5-(2-(3-fluoropyrrolidin-1-yl)-2-oxoethyl)-1-(oxetan-3-yl)-1H-pyrrolo[3,2-c]pyridin-4(5H)-one] | 29
O=C(Cn1ccc2cccc(-c3ccc(Cl)c(F)c3)c2c1=O)N1CCCC1 [Example 307, 8-(4-chloro-3-fluorophenyl)-2-(2-oxo-2-(pyrrolidin-1-yl)ethyl)isoquinolin-1(2H)-one] | 24
CC1(F)CN(C(=O)Cn2ccn3ncc(-c4ccc(F)c(Cl)c4)c3c2=O)C1 [Example 329, 3-(3-chloro-4-fluorophenyl)-5-(2-(3-fluoro-3-methylazetidin-1-yl)-2-oxoethyl)pyrazolo[1,5-a]pyrazin-4(5H)-one] | 110
O=C(Cn1ccc2c(c(-c3ccc(F)c(C(F)(F)F)c3)cn2-c2ncccn2)c1=O)N1CCC(F)C1 (centres unmarked) [Example 243, 3-(4-fluoro-3-(trifluoromethyl)phenyl)-5-(2-(3-fluoropyrrolidin-1-yl)-2-oxoethyl)-1-(pyrimidin-2-yl)-1H-pyrrolo[3,2-c]pyridin-4(5H)-one] | 96
O=C(Cn1ccc2scc(-c3cnc(Cl)nc3)c2c1=O)N1CC(F)(CF)C1 [Example 142, 3-(2-chloropyrimidin-5-yl)-5-(2-(3-fluoro-3-(fluoromethyl)azetidin-1-yl)-2-oxoethyl)thieno[3,2-c]pyridin-4(5H)-one] | −4.2
O=C(Cn1cnc2c(c(-c3ccc(F)c(Cl)c3)cn2CCF)c1=O)N1CCCC1 [Example 172] | 40
CC1(F)CN(C(=O)Cn2ccc3c(c(-c4ccc(F)c(Cl)c4)cn3C3COC3)c2=O)C1 [Example 282, 3-(3-chloro-4-fluorophenyl)-5-(2-(3-fluoro-3-methylazetidin-1-yl)-2-oxoethyl)-1-(oxetan-3-yl)-1,5-dihydro-4H-pyrrolo[3,2-c]pyridin-4-one] | 120
O=C(Cn1ccn2c(C3CC3)nc(-c3ccc(F)c(Cl)c3)c2c1=O)N1CC(F)(CF)C1 [Example 439, 1-(3-chloro-4-fluorophenyl)-3-cyclopropyl-7-(2-(3-fluoro-3-(fluoromethyl)azetidin-1-yl)-2-oxoethyl)imidazo[1,5-a]pyrazin-8(7H)-one] | 120
CC1(F)CN(C(=O)Cn2ccc3scc(-c4cncc(Cl)n4)c3c2=O)C1 [Example 145, 3-(6-chloropyrazin-2-yl)-5-(2-(3-fluoro-3-methylazetidin-1-yl)-2-oxoethyl)thieno[3,2-c]pyridin-4(5H)-one] | 3
O=C(Cn1ccc2scc(-c3ccc(F)c(Cl)c3)c2c1=O)N1CCC1 [Example 46, 5-(2-(azetidin-1-yl)-2-oxoethyl)-3-(3-chloro-4-fluorophenyl)thieno[3,2-c]pyridin-4(5H)-one] | 26
CC1(F)CN(C(=O)Cn2ccc3[nH]cc(-c4ccc(F)c(C(F)(F)F)c4)c3c2=O)C1 [Example 222, 3-(4-fluoro-3-(trifluoromethyl)phenyl)-5-(2-(3-fluoro-3-methylazetidin-1-yl)-2-oxoethyl)-1H-pyrrolo[3,2-c]pyridin-4(5H)-one] | 86
O=C(Cn1ccc2c(c(-c3ccc(F)c(C(F)(F)F)c3)cn2C2COC2)c1=O)N1CCC(F)C1 (centres unmarked) [Example 265, 3-(4-fluoro-3-(trifluoromethyl)phenyl)-5-(2-(3-fluoropyrrolidin-1-yl)-2-oxoethyl)-1-(oxetan-3-yl)-1H-pyrrolo[3,2-c]pyridin-4(5H)-one] | 61
O=C(Cn1cnc2ccn(-c3ccc(Cl)cc3)c2c1=O)N1CCCC1C(F)(F)F (centres unmarked) [Example 379, 5-(4-chlorophenyl)-3-(2-oxo-2-(2-(trifluoromethyl)pyrrolidin-1-yl)ethyl)-3H-pyrrolo[3,2-d]pyrimidin-4(5H)-one] | 5
O=C(Cn1ccc2[nH]cc(-c3ccc(F)c(Cl)c3)c2c1=O)N1CCC(F)C1 (centres unmarked) [Example 209, 3-(3-chloro-4-fluorophenyl)-5-(2-(3-fluoropyrrolidin-1-yl)-2-oxoethyl)-1H-pyrrolo[3,2-c]pyridin-4(5H)-one] | 53
CC(C)(C)OC(=O)N1CCC12CN(C(=O)Cn1ccc3scc(-c4ccc(F)c(Cl)c4)c3c1=O)C2 [Example 79, tert-butyl 6-(2-(3-(3-chloro-4-fluorophenyl)-4-oxothieno[3,2-c]pyridin-5(4H)-yl)acetyl)-1,6-diazaspiro[3.3]heptane-1-carboxylate] | 18

Structure (SMILES) | Response Recovered (%)
CCC1(F)CN(C(=O)Cn2ccc3c(c(-c4ccc(F)c(Cl)c4)cn3C3CC3)c2=O)C1 [Example 237, 3-(3-chloro-4-fluorophenyl)-1-cyclopropyl-5-(2-(3-ethyl-3-fluoroazetidin-1-yl)-2-oxoethyl)-1H-pyrrolo[3,2-c]pyridin-4(5H)-one] | 79
O=C(Cn1cnc2csc(-c3ccc(Cl)cc3)c2c1=O)N1CCC1 [Example 349, 3-(2-(azetidin-1-yl)-2-oxoethyl)-5-(4-chlorophenyl)thieno[3,4-d]pyrimidin-4(3H)-one] | 3
O=C(Cn1ccc2ccc(-c3ccc(Cl)c(C(F)(F)F)c3)cc2c1=O)N1CC(F)(F)C1 [Example 312, 7-(4-chloro-3-(trifluoromethyl)phenyl)-2-(2-(3,3-difluoroazetidin-1-yl)-2-oxoethyl)isoquinolin-1(2H)-one] | 3
O=C(Cn1ccc2c(c(-c3ccc(Cl)c(Cl)c3)cn2C2CC2)c1=O)N1CC(F)(CF)C1 [Example 293, 1-cyclopropyl-3-(3,4-dichlorophenyl)-5-(2-(3-fluoro-3-(fluoromethyl)azetidin-1-yl)-2-oxoethyl)-1,5-dihydro-4H-pyrrolo[3,2-c]pyridin-4-one] | 160
CCOCc1cn(CC(=O)N2CCC(F)C2)c(=O)c2c(-c3ccc(F)c(C(F)(F)F)c3)csc12 (centres unmarked) [Example 127, 7-(ethoxymethyl)-3-(4-fluoro-3-(trifluoromethyl)phenyl)-5-(2-(3-fluoropyrrolidin-1-yl)-2-oxoethyl)thieno[3,2-c]pyridin-4(5H)-one] | 48
O=C(Cn1cnc2[nH]cc(-c3ccc(Cl)c(F)c3)c2c1=O)N1CCC(F)C1 (centres unmarked) [Example 179, 5-(4-Chloro-3-fluoro-phenyl)-3-[2-(3-fluoro-pyrrolidin-1-yl)-2-oxo-ethyl]-3,7-dihydro-pyrrolo[2,3-d]pyrimidin-4-one] | 37
Cc1cc(-c2ccn3ccn(CC(=O)N4CC(C)(F)C4)c(=O)c23)cnc1Cl [Example 408, 8-(6-chloro-5-methylpyridin-3-yl)-2-(2-(3-fluoro-3-methylazetidin-1-yl)-2-oxoethyl)pyrrolo[1,2-a]pyrazin-1(2H)-one] | 51
CC1(F)CN(C(=O)Cn2ccn3cnc(-c4ccc(F)c(C(F)(F)F)c4)c3c2=O)C1 [Example 446, 1-(4-fluoro-3-(trifluoromethyl)phenyl)-7-(2-(3-fluoro-3-methylazetidin-1-yl)-2-oxoethyl)imidazo[1,5-a]pyrazin-8(7H)-one] | 68
CC1(F)CN(C(=O)Cn2ccn3c(C4CC4)nc(-c4ccc(F)c(Cl)c4)c3c2=O)C1 [Example 436, 1-(3-chloro-4-fluorophenyl)-3-cyclopropyl-7-(2-(3-fluoro-3-methylazetidin-1-yl)-2-oxoethyl)imidazo[1,5-a]pyrazin-8(7H)-one] | 100
O=C(Cn1ccc2c(c(-c3ccc(Cl)c(C(F)(F)F)c3)cn2-c2ccccn2)c1=O)N1CCC(F)C1 (centres unmarked) [Example 224, 3-(4-chloro-3-(trifluoromethyl)phenyl)-5-(2-(3-fluoropyrrolidin-1-yl)-2-oxoethyl)-1-(pyridin-2-yl)-1H-pyrrolo[3,2-c]pyridin-4(5H)-one] | 109
O=C(Cn1cnc2ccn(-c3ccc(Cl)cc3)c2c1=O)N1CCCCC1 [Example 377, 5-(4-chlorophenyl)-3-(2-oxo-2-(piperidin-1-yl)ethyl)-3H-pyrrolo[3,2-d]pyrimidin-4(5H)-one] | 1
O=C(Cn1ccc2ncc(-c3ccc(Cl)c(Cl)c3)n2c1=O)N1CCC(F)C1 (centres unmarked) [Example 450, 3-(3,4-dichlorophenyl)-6-(2-(3-fluoropyrrolidin-1-yl)-2-oxoethyl)imidazo[1,2-c]pyrimidin-5(6H)-one] | 33
CC1(F)CN(C(=O)Cn2ccc3c(c(-c4ccc(F)c(Cl)c4)cn3CCF)c2=O)C1 [Example 281, 3-(3-chloro-4-fluorophenyl)-5-(2-(3-fluoro-3-methylazetidin-1-yl)-2-oxoethyl)-1-(2-fluoroethyl)-1H-pyrrolo[3,2-c]pyridin-4(5H)-one] | 150
O=C(Cn1ccc2c(c(-c3ccc(F)c(C(F)(F)F)c3)cn2CCF)c1=O)N1CCC(F)C1 (centres unmarked) [Example 252, 3-(4-fluoro-3-(trifluoromethyl)phenyl)-1-(2-fluoroethyl)-5-(2-(3-fluoropyrrolidin-1-yl)-2-oxoethyl)-1H-pyrrolo[3,2-c]pyridin-4(5H)-one] | 96
Cc1nc(-c2ccc(F)c(Cl)c2)c2c(=O)n(CC(=O)N3CCC(F)C3)ccn12 (centres unmarked) [Example 428, 1-(3-chloro-4-fluorophenyl)-7-(2-(3-fluoropyrrolidin-1-yl)-2-oxoethyl)-3-methylimidazo[1,5-a]pyrazin-8(7H)-one] | 18
Cn1cnc(-n2cc(-c3ccc(Cl)c(Cl)c3)c3c(=O)n(CC(=O)N4CC(C)(F)C4)ccc32)n1 [Example 270, 3-(3,4-dichlorophenyl)-5-(2-(3-fluoro-3-methylazetidin-1-yl)-2-oxoethyl)-1-(1-methyl-1H-1,2,4-triazol-3-yl)-1H-pyrrolo[3,2-c]pyridin-4(5H)-one] | 130
